Laboratory results: patent publication EP4692073A1, “CYCLIC AMINE DERIVATIVE, AND COMPOSITION AND USE THEREOF” (Shanghai Jingxin Biomedical Co., Ltd., priority 2023, dated 2024)

Key:
[1] = test system: Lp(a); test: In vivo Lp(a) inhibition in cynomolgus monkeys; conditions: 3 mg/kg oral gavage once daily for 5 days, serum Lp(a) 8 hours after administration on Day 5
Description: • 1. Experimental purpose: The purpose of this test is to test the inhibitory effect of the compounds of the present invention on Lp(a) in cynomolgus monkeys • 2. Experimental instruments and reagents: Fully automatic biochemical analyzer (Hitachi 7600 model), • 3. Experimental methods: The cynomolgus monkeys were housed with a standard light cycle (12 hours light/12 hours dark), at a room temperature of 18-26°C and a relative humidity of 40-70%, with drinking water provided continuously for 24 hours, and feed was provided to the animals twice daily, in the morning (about 10:30) and in the afternoon (about 15:00). Five days prior to the study, the cynomolgus monkeys were randomly assigned to groups (n=3/group) based on their body weight and baseline serum Lp(a) concentration for the study. The administration volume was calculated according to the body weight of the animals on the first day of administration, and the administration volume was 5 mL/kg, administered once daily by oral gavage for 5 consecutive days, and the dosage was 3 mg/kg, and the solvent was 1% HEC and 0.25% Tween 80.
The adaptation period (after fasting overnight), before administration on Day 1, and 8 hours after administration on Day 5. […] The serum Lp(a) level was detected using a fully automatic biochemical analyzer. […]

[2] = test system: TA98; test: Salmonella typhimurium reverse mutation test, TA98; assay type: cell-based; set-up: key: + indicates a positive mutagenic result; - indicates a negative mutagenic result
Description: (§1) The revived strains or a single colony from the master plate were inoculated into the broth, and cultured in a thermostat gas bath vibrator at 100 to 120 rpm and 37±1°C for 10 to 16 hours, marked and stored for later use. The bottom agar medium (containing an appropriate amount of agar, Vogel-Bonner buffer, 20% glucose solution and 20% magnesium sulfate solution) was poured into a six-well plate, approximately 20mL-25mL into each well, and allowed to cool and solidify naturally, marked each well and stored for later use.
(§2) Three wells were set up in each group for parallel experiments. The top agar medium was sterilized under high pressure and kept warm at about […]. In each test tube, 0.1mL of negative control (DMSO) or positive control or test sample, 0.1mL of bacterial solution suspension, 0.5mL of phosphate buffer (0.2M PBS) (-S9) or 0.5mL of S9 mixed solution (+S9) and 2.5mL top culture medium were added, after vortex mixing, and then quickly and evenly spread on the culture dish which was already spreaded with the bottom agar medium. After natural cooling and solidification, the culture dish was inverted and placed in a 37°C incubator for 48 to 72 hours. After culturing for 48 to 72 hours, the culture dish was taked out, and the number of revertant colonies in each well was counted, the growth background was observed under a microscope to determine whether there was antibacterial or bactericidal activity, and the experimental results were recorded.

[3] = test system: TA1537; test: Salmonella typhimurium reverse mutation test, TA1537; assay type: cell-based; set-up: key: + indicates a positive mutagenic result; - indicates a negative mutagenic result
Description: as §1, §2

[4] = test system: TA100; test: Salmonella typhimurium reverse mutation test, TA100; assay type: cell-based; set-up: key: + indicates a positive mutagenic result; - indicates a negative mutagenic result
Description: as §1, §2

[5] = test system: TA102; test: Salmonella typhimurium reverse mutation test, TA102; assay type: cell-based; set-up: key: + indicates a positive mutagenic result; - indicates a negative mutagenic result
Description: as §1, §2

[6] = test system: TA1535; test: Salmonella typhimurium reverse mutation test, TA1535; assay type: cell-based; set-up: key: + indicates a positive mutagenic result; - indicates a negative mutagenic result
Description: as §1, §2

[7] = TA98, no S9 mixture, 62µg/ dish
[8] = TA98, no S9 mixture, 185µg/ dish
[9] = TA98, no S9 mixture, 556µg/ dish
[10] = TA98, no S9 mixture, 1667µg/ dish
[11] = TA98, no S9 mixture, 5000µg/ dish
[12] = TA98, with S9 mixture, 62µg/ dish
[13] = TA98, with S9 mixture, 185µg/ dish
[14] = TA98, with S9 mixture, 556µg/ dish
[15] = TA98, with S9 mixture, 1667µg/ dish
[16] = TA98, with S9 mixture, 5000µg/ dish
[17] = TA1537, no S9 mixture, 62µg/ dish
[18] = TA1537, no S9 mixture, 185µg/ dish
[19] = TA1537, no S9 mixture, 556µg/ dish
[20] = TA1537, no S9 mixture, 1667µg/ dish
[21] = TA1537, no S9 mixture, 5000µg/ dish
[22] = TA1537, with S9 mixture, 62µg/ dish
[23] = TA1537, with S9 mixture, 185µg/ dish
[24] = TA1537, with S9 mixture, 556µg/ dish
[25] = TA1537, with S9 mixture, 1667µg/ dish
[26] = TA1537, with S9 mixture, 5000µg/ dish
[27] = TA100, no S9 mixture, 62µg/ dish
[28] = TA100, no S9 mixture, 185µg/ dish
[29] = TA100, no S9 mixture, 556µg/ dish
[30] = TA100, no S9 mixture, 1667µg/ dish
[31] = TA100, no S9 mixture, 5000µg/ dish
[32] = TA100, with S9 mixture, 62µg/ dish
[33] = TA100, with S9 mixture, 185µg/ dish
[34] = TA100, with S9 mixture, 556µg/ dish
[35] = TA100, with S9 mixture, 1667µg/ dish
[36] = TA100, with S9 mixture, 5000µg/ dish
[37] = TA102, no S9 mixture, 62µg/ dish
[38] = TA102, no S9 mixture, 185µg/ dish
[39] = TA102, no S9 mixture, 556µg/ dish
[40] = TA102, no S9 mixture, 1667µg/ dish
[41] = TA102, no S9 mixture, 5000µg/ dish
[42] = TA102, with S9 mixture, 62µg/ dish
[43] = TA102, with S9 mixture, 185µg/ dish
[44] = TA102, with S9 mixture, 556µg/ dish
[45] = TA102, with S9 mixture, 1667µg/ dish
[46] = TA102, with S9 mixture, 5000µg/ dish
[47] = TA1535, no S9 mixture, 62µg/ dish
[48] = TA1535, no S9 mixture, 185µg/ dish
[49] = TA1535, no S9 mixture, 556µg/ dish
[50] = TA1535, no S9 mixture, 1667µg/ dish
[51] = TA1535, no S9 mixture, 5000µg/ dish
[52] = TA1535, with S9 mixture, 62µg/ dish
[53] = TA1535, with S9 mixture, 185µg/ dish
[54] = TA1535, with S9 mixture, 556µg/ dish
[55] = TA1535, with S9 mixture, 1667µg/ dish
[56] = TA1535, with S9 mixture, 5000µg/ dish

For `O=C(O)[C@@H](Cc1cccc(CN(Cc2cccc(C[C@H](C(=O)O)[C@H]3CCNC3)c2)Cc2cccc(C[C@H](C(=O)O)[C@H]3CCNC3)c2)c1)[C@H]1CCNC1` [Comparative Example 1], the “Lp(a) inhibition rate” value [1] was 32.87±17.30%, the mutagenicity [2, 7] was “-” and the mutagenicity [2, 8] was “+”. The mutagenicity [2, 9] was “+”, the mutagenicity [2, 10] was “+” and the mutagenicity [2, 11] was “+”. The mutagenicity [2, 12] was “-”, the mutagenicity [2, 13] was “-” and the mutagenicity [2, 14] was “+”. For the same compound, the mutagenicity [2, 15] was “+”, the mutagenicity [2, 16] was “+” and the mutagenicity [3, 17] was “-”. For the same compound, the mutagenicity [3, 18] was “-”, the mutagenicity [3, 19] was “-” and the mutagenicity [3, 20] was “-”. The mutagenicity [3, 21] was “-”, the mutagenicity [3, 22] was “-” and the mutagenicity [3, 23] was “-”. The mutagenicity [3, 24] was “-”, the mutagenicity [3, 25] was “-” and the mutagenicity [3, 26] was “-”. For the same compound, the mutagenicity [4, 27] was “-”, the mutagenicity [4, 28] was “-” and the mutagenicity [4, 29] was “-”. The mutagenicity [4, 30] was “-”, the mutagenicity [4, 31] was “-” and the mutagenicity [4, 32] was “-”. The mutagenicity [4, 33] was “-”, the mutagenicity [4, 34] was “-” and the mutagenicity [4, 35] was “-”. The mutagenicity [4, 36] was “-”, the mutagenicity [5, 37] was “-” and the mutagenicity [5, 38] was “-”. The mutagenicity [5, 39] was “-”, the mutagenicity [5, 40] was “-” and the mutagenicity [5, 41] was “-”. For the same compound, the mutagenicity [5, 42] was “-”, the mutagenicity [5, 43] was “-” and the mutagenicity [5, 44] was “-”. For the same compound, the mutagenicity [5, 45] was “-”, the mutagenicity [5, 46] was “-” and the mutagenicity [6, 47] was “-”. For the same compound, the mutagenicity [6, 48] was “-”, the mutagenicity [6, 49] was “-” and the mutagenicity [6, 50] was “-”. For the same compound, the mutagenicity [6, 51] was “-”, the mutagenicity [6, 52] was “-” and the mutagenicity [6, 53] was “-”. The mutagenicity [6, 54] was “-”, the mutagenicity [6, 55] was “-” and the mutagenicity [6, 56] was “-”.

With `O=C(O)[C@@H](Cc1cccc(CN(Cc2cccc(C[C@H](C(=O)O)[C@H]3CCNC3)c2)C(=O)c2cccc(C[C@H](C(=O)O)[C@H]3CCNC3)c2)c1)[C@H]1CCNC1` [Example 5] the “Lp(a) inhibition rate” value [1] was 50.23±20.41%, the mutagenicity [2, 7] was “-” and the mutagenicity [2, 8] was “-”. For the same compound, the mutagenicity [2, 9] was “-”, the mutagenicity [2, 10] was “-” and the mutagenicity [2, 11] was “-”. For the same compound, the mutagenicity [2, 12] was “-”, the mutagenicity [2, 13] was “-” and the mutagenicity [2, 14] was “-”. For the same compound, the mutagenicity [2, 15] was “-”, the mutagenicity [2, 16] was “-” and the mutagenicity [3, 17] was “-”. For the same compound, the mutagenicity [3, 18] was “-”, the mutagenicity [3, 19] was “-” and the mutagenicity [3, 20] was “-”. The mutagenicity [3, 21] was “-”, the mutagenicity [3, 22] was “-” and the mutagenicity [3, 23] was “-”. For the same compound, the mutagenicity [3, 24] was “-”, the mutagenicity [3, 25] was “-” and the mutagenicity [3, 26] was “-”. The mutagenicity [4, 27] was “-”, the mutagenicity [4, 28] was “-” and the mutagenicity [4, 29] was “-”. The mutagenicity [4, 30] was “-”, the mutagenicity [4, 31] was “-” and the mutagenicity [4, 32] was “-”. The mutagenicity [4, 33] was “-”, the mutagenicity [4, 34] was “-” and the mutagenicity [4, 35] was “-”. The mutagenicity [4, 36] was “-”, the mutagenicity [5, 37] was “-” and the mutagenicity [5, 38] was “-”. The mutagenicity [5, 39] was “-”, the mutagenicity [5, 40] was “-” and the mutagenicity [5, 41] was “-”. The mutagenicity [5, 42] was “-”, the mutagenicity [5, 43] was “-” and the mutagenicity [5, 44] was “-”. For the same compound, the mutagenicity [5, 45] was “-”, the mutagenicity [5, 46] was “-” and the mutagenicity [6, 47] was “-”. For the same compound, the mutagenicity [6, 48] was “-”, the mutagenicity [6, 49] was “-” and the mutagenicity [6, 50] was “-”. For the same compound, the mutagenicity [6, 51] was “-”, the mutagenicity [6, 52] was “-” and the mutagenicity [6, 53] was “-”. For the same compound, the mutagenicity [6, 54] was “-”, the mutagenicity [6, 55] was “-” and the mutagenicity [6, 56] was “-”.
